Measured values reported in patent publication US5968933A, “DNA-targeted alkylating agents” (Auckland Division Cancer Society of New Zealand Inc., priority 1994, dated 1999).
Entries after “also recorded” stand apart in the source; their conditions may differ.

Tests used:
linearized pSV2gpt DNA = test: DNA crosslinking assay (agarose gel electrophoresis of linearized plasmid); assay type: biochemical; conditions: 2 h at 30° C., TE-80 buffer pH 8
Procedure: The ability of representative compounds of the invention to bind to and cross-link DNA was examined. This was carried out by agarose gel electrophoresis of plasmid DNA using linearized pSV2gpt DNA (Tindall, K. R. and Stankowski, L. F.; Mutation Research, 1989 220 241-245) and the method reported by Valu et al, 1990, op.cit. Briefly, linearized pSV2gpt DNA (1 μL of a 1 mg/mL solution) was incubated with drug in TE-80 buffer (10 mM Tris.HCl, 1 mM EDTA at pH 8), shielded from ambient light, for 2 h at 30° C., then denatured by the addition of […] of 1% sodium dodecyl sulfate and 10 μL of 50 mM methylmercury hydroxide and incubated for a further 30 min at 20° C. in the dark. Renaturation of drug-treated DNA samples was carried out by incubation with 2.5 μL of 2-mercaptoethanol for 1 h. Samples were prepared for electrophoresis by the addition of 0.1 mg/mL bromophenol blue, 0.5 μg/mL ethidium bromide and 5 μL of 40% sucrose. Electrophoresis was carried out at 120V in 89 mM tris/borate buffer at pH 8 containing 2 mM EDTA and 0.5 μg/mL ethidium bromide. DNA was visualized using 302 nm trans-illumination, and was photographed using Polaroid type 55 film and a Wratten 3A filter.
After drug treatment, DNA is denatured to the single stranded form, which runs as a lower band in the gels (see lanes 1 and 2 in FIG. 1). Cross-linking by the drugs is evidenced by the appearance of increasing amounts of renatured, double stranded DNA, as shown by the upper band in the gels, corresponding to the band for untreated DNA seen in lane 1.

calf thymus DNA [1] = test: Rate of alkylation of calf thymus DNA by increase in DNA-bound fluorescence; assay type: biochemical; set-up: unit not given here
P388 cells = test: Growth inhibition in vitro, P388 leukaemia; assay type: cell-based, murine; conditions: for IC50: P388 cells, 72 h, MTT, read-out: IC50
Procedure: (§1) Representative examples of compounds of the invention were tested for biological activity against tumors. Compounds 1 to 6 and 14 to 21, prepared as described above, were tested for their ability to inhibit growth in vitro of cells of the wild-type murine leukaemia cell line P388, and the cell line AA8 which is derived from Chinese hamster ovary cells. For each compound, the IC50, ie. the concentration of compound which inhibited cell growth in treated cultures to 50% of that of controls, was determined, using means of three determinations. In addition, a hypersensitivity factor was determined by comparing activity of the compounds against AA8 cells to activity against UV4. The latter cell line is deficient in aspects of the excision repair pathway for removing DNA adducts, and is hypersensitive to DNA-alkylating agents, especially interstrand crosslinking agents. Previous work has shown that the ratio of IC50 s determined in the wild-type AA8 and mutant UV4 lines (the hypersensitivity factor HF) is a determinant of the mode of cell killing by alkylating agents (Palmer, B. D. et al, J. Med. Chem., 1990 33 112-121; Wilson, W. R. et al, J. Med. Chem., 1989 32 31-38). Compounds with HFs of ca. 1 are unlikely to kill cells via DNA alkylation events. Compounds which show high HF values are likely to form bulky adducts or cross-links,with the latter being especially likely for compounds showing the highest HF values (>ca. 25) (Wilson et al, op. cit.).
(§2) Cell lines were maintained in exponential growth phase by subculturing in RPMI 1640 (P338) or Alpha MEM (AA8, UV4) containing 10% fetal calf serum, as previously described (Palmer et al, op.cit.; Baguley, B. C. and Wilson, W. R., Eur. J. Cancer Clin. Oncol., 1987 23 607-613). IC50 values were determined using log-phase cultures in 96-well microculture plates, and were calculated as the nominal drug concentration required to reduce the cell density to 50% of control values, using 8 control cultures on each microplate. For P388 cultures, drug was present throughout the growth period (72 h), and final cell densities were determined using a minor modification of the MTT method of Mossman (Mossman, T., J. Immunol. Methods, 1983 65 55-63). For AA8 and UV4 cultures, drug exposure was terminated after 18 h by washing three times with fresh medium. Cultures were then grown for a further 72 h before determining cell density by staining with methylene blue (Finlay, G. J. et al, Anal. Biochem., 1984 139 272-277).

AA8 cells = test: Growth inhibition in vitro, AA8; assay type: cell-based, Chinese hamster; conditions: for IC50: AA8 cells, 18 h exposure, then 72 h growth, methylene blue, read-out: IC50
Procedure: as §1, §2

AA8 and UV4 cells = test: Hypersensitivity factor (AA8/UV4 IC50 ratio); assay type: cell-based, Chinese hamster; conditions: ratio of IC50s AA8/UV4
Procedure: as §1, §2

P338 murine leukaemia = assay type: in vivo, mice; conditions: for in vivo antitumour activity: P388, single-dose protocol; for Optimal dose / average number of animals in a group of six which were long-term survivors: single i.p. dose; for % Increase in lifespan: single i.p. dose 24 h after tumour inoculation, at optimal dose (mg/kg: 1 30; 2 30; 3 13.3; 4 3.9; 5 5.9; 6 8.9); for average number of animals in a group of six which were long-term survivors: optimal dose
[2] = test system: Saccharomyces cerevisiae strain D5; conditions: for aberrant colonies in yeast / mitotic crossing-over: yeast strain D5, in words
S. typhimurium TA98 = test: Bacterial mutagenicity, plate incorporation assay, TA98; conditions: mean ± SD
S. typhimurium TA100 = test: Bacterial mutagenicity, plate incorporation assay, TA100; conditions: for reversion colonies, TA100: mean ± SD; for mutagenicity in TA100: statistical analysis
S. typhimurium TA102 = test: Bacterial mutagenicity, plate incorporation assay, TA102; conditions: mean ± SD
calf thymus DNA [3] = test: Reversible DNA binding by spectrophotometric Scatchard analysis; conditions: 20° C., 0.01M HEPES buffer, pH 7.00
[4] = 80 μg/plate, square brackets: toxicity becoming apparent
[5] = 120 μg/plate, square brackets: toxicity becoming apparent
[6] = 40 μg/plate, square brackets: toxicity becoming apparent
[7] = compound 4 versus compounds 2 and 3

| Structure (SMILES) | Cross-linking (linearized pSV2gpt DNA) | Rate constant for alkylation (calf thymus DNA [1]) | IC50 (P388 cells) | IC50 (AA8 cells) | Hypersensitivity factor (AA8 and UV4 cells) | in vivo antitumour activity (P338 murine leukaemia) | Optimal dose (P338 murine leukaemia) | % Increase in lifespan (P338 murine leukaemia) | reversion colonies, TA98 (S. typhimurium TA98; 4 μg/plate) | reversion colonies, TA98 (S. typhimurium TA98; 10 μg/plate) | reversion colonies, TA98 (S. typhimurium TA98; 20 μg/plate) | reversion colonies, TA98 (S. typhimurium TA98; 40 μg/plate) | reversion colonies, TA100 (S. typhimurium TA100; 4 μg/plate) | reversion colonies, TA100 (S. typhimurium TA100; 10 μg/plate) | reversion colonies, TA100 (S. typhimurium TA100; 20 μg/plate) | reversion colonies, TA100 (S. typhimurium TA100; 40 μg/plate) | reversion colonies, TA100 (S. typhimurium TA100; 80 μg/plate) | reversion colonies, TA102 (S. typhimurium TA102; 4 μg/plate) | reversion colonies, TA102 (S. typhimurium TA102; 10 μg/plate) | reversion colonies, TA102 (S. typhimurium TA102; 20 μg/plate) | other results |
| --- | --- | --- | --- | --- | --- | --- | --- | --- | --- | --- | --- | --- | --- | --- | --- | --- | --- | --- | --- | --- | --- |
| CN1CCN(c2ccc3nc(-c4ccc5nc(-c6ccc(N(CCCl)CCCl)cc6)[nH]c5c4)[nH]c3c2)CC1 [Compound 2, 2-[2-[4-(N,N-bis(2-chloroethyl)amino)phenyl]-5-benzimidazolyl]-5-(1-methyl-4-piperazinyl)benzimidazole] | No | 1.78 × 10^4 | 800 nM | 1680 nM | 24 | highest activity | 30 mg/kg | 106% | 61 ± 3 | 68 ± 2 | 58 ± 1 | 52 ± 7 | 173 ± 7 | 175 ± 17 | 167 ± 28 | 210 ± 20 | 192 ± 1 | 408 ± 31 | 371 ± 14 | 280 ± 14 | average number of animals in a group of six which were long-term survivors (P338 murine leukaemia): 2 animals; petite (mitochondrial) mutagenesis [2]: inactive; bacterial mutagenicity (S. typhimurium strains): inactive as a bacterial mutagen; reversion colonies, TA98 (S. typhimurium TA98; [4]): 55 ± 2; Site size (Number of nucleotide residues) (calf thymus DNA [3]): 2.6 nucleotide residues |
| CN1CCN(c2ccc3nc(-c4ccc5nc(CCCc6ccc(N(CCCl)CCCl)cc6)[nH]c5c4)[nH]c3c2)CC1 [Compound 5, 2-[2-[3-[4-(N,N-bis(2-chloroethyl)amino)phenyl]propyl]-5-benzimidazolyl]-5-(1-methyl-4-piperazinyl)benzimidazole] | No | 6.52 × 10^4 | 20 nM | 1320 nM | 46 | inactive in vivo at all doses up to the maximum tolerable dose | 5.9 mg/kg | not active | 63 ± 2 | 62 ± 1 | 71 ± 13 | 62 ± 3 | 188 ± 15 | 180 ± 5 | 205 ± 14 | 240 ± 7 | 258 ± 21 | 342 ± 32 | 392 ± 31 | 368 ± 32 | aberrant colonies in yeast [2]: some aberrant colonies; mitotic crossing-over [2]: weak mitotic crossing-over; reversion colonies, TA98 (S. typhimurium TA98; [4]): 63 ± 9; reversion colonies, TA98 (S. typhimurium TA98; [5]): 71 ± 1; mutagenicity in TA100 (S. typhimurium TA100): could be considered to show a mutagenic effect in TA100; also recorded: mutagenic ability; reversion colonies, TA102 (S. typhimurium TA102; [6]): 327 ± 17; reversion colonies, TA102 (S. typhimurium TA102; [4]): 480 ± 17; reversion colonies, TA102 (S. typhimurium TA102; [5]): 607 ± 28; Site size (Number of nucleotide residues) (calf thymus DNA [3]): 3.0 nucleotide residues |
| CN1CCN(c2ccc3nc(-c4ccc5nc(CCc6ccc(N(CCCl)CCCl)cc6)[nH]c5c4)[nH]c3c2)CC1 [Compound 4, 2-[2-[2-[4-(N,N-bis(2-chloroethyl)amino)phenyl]ethyl]-5-benzimidazolyl]-5-(1-methyl-4-piperazinyl)benzimidazole] | No | 4.62 × 10^4 | 10 nM | 330 nM | 47 | retained significant in vivo activity | 3.9 mg/kg | 52% | 71 ± 2 | 74 ± 10 | 75 ± 1 | 65 ± 6 | 172 ± 4 | 231 ± 7 | 264 ± 12 | 237 ± 29 | 207 ± 10 | 340 ± 26 | 366 ± 49 | 429 ± 17 | increase in cytotoxicity in P388 (P388 cells; [7]): 80 fold; increase in cytotoxicity in AA8 (AA8 cells; [7]): 5 fold; average number of animals in a group of six which were long-term survivors (P338 murine leukaemia): 1 animals; aberrant colonies in yeast [2]: some aberrant colonies; mitotic crossing-over [2]: weak mitotic crossing-over; reversion colonies, TA100 (S. typhimurium TA100; [5]): 232 ± 19; mutagenicity in TA100 (S. typhimurium TA100): could be considered to show a mutagenic effect in TA100; also recorded: mutagenic ability; reversion colonies, TA102 (S. typhimurium TA102; [6]): 465 ± 41; reversion colonies, TA102 (S. typhimurium TA102; [4]): 609 ± 74; Site size (Number of nucleotide residues) (calf thymus DNA [3]): 2.8 nucleotide residues |
